Laboratory results taken from patent US20150141411A1, “SUBSTITUTED 3,4-DIHYDRO-2H-PYRIDO[1,2-A]PYRAZINE-1,6-DIONE DERIVATIVES USEFUL FOR THE TREATMENT OF (INTER ALIA) ALZHEIMER'S DISEASE” (Janssen Pharmaceuticals, Inc., priority 2012, published 2015).

Assays:
Aβ42 = test: In vivo efficacy: brain soluble Aβ42 in non-transgenic rodents (MSD electrochemiluminescence multiplex); design: species or system mouse; conditions: Mus musculus, po, 4 h, dose 30 mg/kg oral dosing, brain soluble fraction, animals sacrificed after 4 h, untreated animals (Ctrl) set at 100, read-out: Aβ42 (% vs Ctrl)_Mean
Text: (§1) To determine whether acute administration of an Aβ42 lowering agent would reduce Aβ42 levels in vivo, non-transgenic rodents, e.g. mice or rats were used. Animals treated with the Aβ42 lowering agent were examined and compared to those untreated or treated with vehicle and brain levels of soluble Aβ42, Aβ40, Aβ38, and Aβ37 were quantitated by Meso Scale Discovery's (MSD) electrochemiluminescence detection technology. Treatment periods varied from hours (h) to days and were adjusted based on the results of the Aβ42 lowering once a time course of onset of effect could be established.
(§2) A typical protocol for measuring Aβ42 lowering in vivo is shown but it is only one of many variations that could be used to optimize the levels of detectable Aβ. For example, Aβ42 lowering compounds were formulated in 20% of Captisol® (a sulfo-butyl ether of β-cyclodextrin) in water or 20% hydroxypropyl βcyclodextrin. The Aβ42 lowering agents were administered as a single oral dose or by any acceptable route of administration to overnight fasted animals. After 4 h, the animals were sacrificed and Aβ42 levels were analysed.
(§3) Blood was collected by decapitation and exsanguinations in EDTA-treated collection tubes. Blood was centrifuged at 1900 g for 10 minutes (min) at 4° C. and the plasma recovered and flash frozen for later analysis. The brain was removed from the cranium and hindbrain. The cerebellum was removed and the left and right hemisphere were separated. The left hemisphere was stored at −18° C. for quantitative analysis of test compound levels. The right hemisphere was rinsed with phosphate-buffered saline (PBS) buffer and immediately frozen on dry ice and stored at −80° C. until homogenization for biochemical assays.
(§4) Mouse brains from non-transgenic animals were resuspended in 8 volumes of 0.4% DEA (diethylamine)/50 mM NaCl containing protease inhibitors (Roche-11873580001 or 04693159001) per gram of tissue, e.g. for 0.158 g brain, add 1.264 ml of 0.4% DEA. All samples were homogenized in the FastPrep-24 system (MP Biomedicals) using lysing matrix D (MPBio #6913-100) at 6 m/s for 20 seconds. Homogenates were centrifuged at 20800×g for 5 min and supernatants collected. Supernatants were centrifuged at 221.300×g for 50 min. The resulting high speed supernatants were then transferred to fresh eppendorf tubes. Nine parts of supernatant were neutralized with 1 part 0.5 M Tris-HCl pH 6.8 and used to quantify Aβ.
(§5) To quantify the amount of Aβ42, Aβ40, Aβ38, and Aβ37 in the soluble fraction of the brain homogenates, simultaneous specific detection of Aβ42, Aβ40, Aβ38, and Aβ37 was performed using MSD's electro-chemiluminescence multiplex detection technology. In this assay purified monoclonal antibodies specific for Abeta37 (JRD/Aβ37/3), Abeta38 (J&JPRD/Aβ38/5), Abeta40 (JRF/cAβ40/28), and Abeta42 (JRF/cAβ42/26) were coated on MSD 4-plex plates. Briefly, the standards (a dilution of synthetic Aβ42, Aβ40, Aβ38, and Aβ37) were prepared in 1.5 ml Eppendorf tube in Ultraculture, with final concentrations ranging from 10000 to 0.3 pg/m. The samples and standards were co-incubated with Sulfo-tag labelled JRF/rAβ/2 antibody to the N-terminus of Aβ as detector antibody. 50 μl of conjugate/sample or conjugate/standards mixtures were then added to the antibody-coated plate. The plate was allowed to incubate overnight at 4° C. in order to allow formation of the antibody-amyloid complex. Following this incubation and subsequent wash steps the assay was finished by adding read buffer according to the manufacturer's instructions (Meso Scale Discovery, Gaitherburg, Md.).
(§6) The SULFO-TAG emits light upon electrochemical stimulation initiated at the electrode. MSD Sector instrument SI6000 was used for signal read-out.
In this model a Aβ42 lowering compared to untreated animals would be advantageous, in particular a Aβ42 lowering with at least 10%, more in particular a Aβ42 lowering with at least 20%. […]

Aβ38 = test: In vivo efficacy: brain soluble Aβ38 in non-transgenic rodents (MSD electrochemiluminescence multiplex); design: species or system mouse; conditions: Mus musculus, po, 4 h, dose 30 mg/kg oral dosing, brain soluble fraction, animals sacrificed after 4 h, untreated animals (Ctrl) set at 100, read-out: Aβ38 (% vs Ctrl)_Mean
Text: as §1, with “Aβ38 increasing agents” for “Aβ42 lowering agent”, “increase Aβ38” for “reduce Aβ42”, “MSD” for “Meso Scale Discovery's (MSD)”, “Aβ38 increase” for “Aβ42 lowering”
as §2, with “measuring Aβ38 increase” for “measuring Aβ42 lowering”, “example, Aβ38 increasing agents” for “example, Aβ42 lowering compounds”, “(a sulfobutyl” for “(a sulfo-butyl”, “The Aβ38 increasing” for “The Aβ42 lowering”, “and Aβ38” for “and Aβ42”
as §3, §4
as §5, with “(MesoScale” for “(Meso Scale”
as §6
In this model a Aβ38 increase compared to untreated animals would be advantageous, in particular a Aβ38 increase with at least 10%, more in particular a Aβ38 increase with at least 20%. […]

Aβ40 = test: In vivo efficacy: brain soluble Aβ40 in non-transgenic rodents (MSD electrochemiluminescence multiplex); design: species or system mouse; conditions: Mus musculus, po, 4 h, dose 30 mg/kg oral dosing, brain soluble fraction, animals sacrificed after 4 h, untreated animals (Ctrl) set at 100, read-out: Aβ40 (% vs Ctrl)_Mean
Text: as §1, §2, §3, §4, §5, §6
The results are shown in Table 5 (dose 30 mg/kg oral dosing) (value for untreated animals as control (Ctrl) was set at 100): […]

γ-secretase [1] = target: T1, γ-secretase (Homo sapiens, UniProt P49768); test: Screening for γ-secretase-modulating activity: Aβ42 in supernatant of SKNBE2 cells carrying hAPP 695 wild type (Alphalisa); assay type: cell-based; conditions: SKNBE2 human neuroblastoma cells carrying hAPP 695 wild type, overnight incubation, Aβ42 in cell supernatant
T1 construct: endogenous in cells; host or cells: SKNBE2 human neuroblastoma cells (carrying hAPP 695 wild type as substrate)
In short: (§7)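 SKNBE2 neuroblastoma cells expressing wild-type hAPP 695 plated at 10^4 cells/well in Ultraculture with test compound, incubated overnight at 37° C. Aβ42 (C-terminal/N-terminal antibody pair) and Aβtotal (N-terminal/4G8 pair) in supernatant quantified by AlphaLISA. IC50 from 4-parameter fit of percent of compound-free control.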

γ-secretase [2] = target: T1, γ-secretase; test: Screening for γ-secretase-modulating activity: Aβtotal in supernatant of SKNBE2 cells carrying hAPP 695 wild type (Alphalisa); assay type: cell-based; conditions: SKNBE2 human neuroblastoma cells carrying hAPP 695 wild type, overnight incubation, Aβtotal in cell supernatant
In short: as §7

IC50 (γ-secretase [1]) [nM] | IC50 (γ-secretase [2]) [nM] | melting point [°C] | SMILES | response vs control in vivo at 30 mg/kg (Aβ42) [%] | response vs control in vivo at 30 mg/kg (Aβ38) [%] | response vs control in vivo at 30 mg/kg (Aβ40) [%]
 |  |  | Cc1cn(-c2ccc3n(c2=O)CC(C)N(Cc2c[nH]c4cc(C(F)(F)F)ccc24)C3=O)cn1 (stereo not drawn) [compound 203] | 67 | 133 | 137
130 | > 10000 | 129 | Cc1cn(-c2ccc3n(c2=O)C[C@@H](C)N(CCc2cccc(C(F)(F)F)c2C)C3=O)cn1 [compound 229] |  |  | 
210 | > 10000 | 192 | Cc1cn(-c2ccc3n(c2=O)C[C@@H](C)N(CCc2cc(Cl)ccc2Cl)C3=O)cn1 [compound 230] |  |  | 
210 | > 10000 | 148 | Cc1cn(-c2ccc3n(c2=O)C[C@@H](C)N(CCc2cc(C(F)(F)F)ccc2F)C3=O)cn1 [compound 232] |  |  | 
260 | > 10000 | 193 | COc1ccc(Cl)cc1CCN1C(=O)c2ccc(-n3cnc(C)c3)c(=O)n2C[C@H]1C [compound 233] |  |  | 
20 | 6000 | 150 | CCn1cc(CN2C(=O)c3ccc(-n4cnc(C)c4)c(=O)n3C[C@H]2C)c2cc(OC)c(Cl)cc21 [compound 251] |  |  | 
20 | 6000 | 217 | Cc1cn(-c2ccc3n(c2=O)CCN(Cc2cn(C)c4cc(Cl)c(Cl)cc24)C3=O)cn1 [compound 254] |  |  | 
10 | 3000 | 265 | Cc1cn(-c2ccc3n(c2=O)C[C@@H](C)N(Cc2cn(C)c4cc(Cl)c(Cl)cc24)C3=O)cn1 [compound 255] |  |  | 
20 | 6000 | 230 | Cc1cn(-c2ccc3n(c2=O)CCN(Cc2cn(C)c4c(Cl)cc(Cl)cc24)C3=O)cn1 [compound 259] |  |  | 
